Structures can show the parent of a compound that is named as a salt.
Molecular target: T1, recombinant guanylate cyclase reporter cell line (Rattus norvegicus, UniProt P19686+P20595)
T1 construct: expressed in transfected cells
T1 sequence (P19686 1-690): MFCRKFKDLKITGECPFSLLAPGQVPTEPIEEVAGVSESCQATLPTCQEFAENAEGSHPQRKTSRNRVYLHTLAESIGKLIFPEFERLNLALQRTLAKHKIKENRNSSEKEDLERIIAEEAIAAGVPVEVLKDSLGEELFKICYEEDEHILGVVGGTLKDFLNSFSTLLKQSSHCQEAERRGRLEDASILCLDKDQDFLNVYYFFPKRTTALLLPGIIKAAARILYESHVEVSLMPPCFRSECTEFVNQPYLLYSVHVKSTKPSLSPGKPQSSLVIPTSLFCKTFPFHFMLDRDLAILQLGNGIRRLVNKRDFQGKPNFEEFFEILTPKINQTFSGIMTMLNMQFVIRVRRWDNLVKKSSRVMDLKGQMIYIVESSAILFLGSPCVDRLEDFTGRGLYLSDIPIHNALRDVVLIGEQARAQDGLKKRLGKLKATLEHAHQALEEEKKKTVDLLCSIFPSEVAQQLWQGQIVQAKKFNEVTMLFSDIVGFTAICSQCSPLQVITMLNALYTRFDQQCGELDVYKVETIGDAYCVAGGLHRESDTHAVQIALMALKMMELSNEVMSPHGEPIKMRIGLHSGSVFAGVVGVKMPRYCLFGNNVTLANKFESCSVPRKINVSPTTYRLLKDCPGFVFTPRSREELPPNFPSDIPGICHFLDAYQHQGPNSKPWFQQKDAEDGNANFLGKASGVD
T1 sequence (P20595 1-619): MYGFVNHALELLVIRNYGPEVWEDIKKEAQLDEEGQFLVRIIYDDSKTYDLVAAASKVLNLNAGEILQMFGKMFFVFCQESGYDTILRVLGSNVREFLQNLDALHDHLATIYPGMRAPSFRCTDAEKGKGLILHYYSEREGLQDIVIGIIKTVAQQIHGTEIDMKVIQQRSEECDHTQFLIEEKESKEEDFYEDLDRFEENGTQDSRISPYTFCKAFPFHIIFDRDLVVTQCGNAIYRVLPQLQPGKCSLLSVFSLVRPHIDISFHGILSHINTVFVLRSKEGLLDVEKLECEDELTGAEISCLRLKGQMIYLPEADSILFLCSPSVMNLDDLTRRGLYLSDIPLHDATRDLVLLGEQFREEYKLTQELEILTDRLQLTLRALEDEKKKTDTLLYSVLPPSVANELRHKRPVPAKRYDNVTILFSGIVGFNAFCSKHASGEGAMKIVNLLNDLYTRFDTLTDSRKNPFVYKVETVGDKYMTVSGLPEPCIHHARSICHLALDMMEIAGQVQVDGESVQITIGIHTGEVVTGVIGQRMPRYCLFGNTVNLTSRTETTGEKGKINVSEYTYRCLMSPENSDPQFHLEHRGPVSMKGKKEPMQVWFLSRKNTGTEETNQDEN
Assay: Effect on a recombinant guanylate cyclase reporter cell line
Type: cell-based
Conditions: MEC = minimum effective concentration; in some cases mean values for individual determinations
Summary of the method: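 Compounds tested in a recombinant guanylate cyclase reporter cell line per a published method. Potency expressed as minimum effective concentration (MEC), sometimes as mean of individual determinations.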

Row | SMILES | MEC
1 | Cc1n[nH]c(C)c1NC(=O)c1c(C)nc2c(OCc3c(F)cccc3F)cc(Cl)cn12 [Example 41, 6-chloro-8-[(2,6-difluorobenzyl)oxy]-N-(3,5-dimethyl-1H-pyrazol-4-yl)-2-methylimidazo[1,2-a]pyridine-3-carboxamide] | 0.1 µM
2 | Cc1nc2c(OCc3c(F)cccc3F)cccn2c1C(=O)Nc1ccc(NCCO)cc1 [Example 98] | 1.0 µM
3 | Cc1nc2c(OCc3c(F)cccc3F)cccn2c1C(=O)Nc1nnc(C2CC2)s1 [Example 84] | 3.0 µM
4 | Cc1nc2c(OCc3c(F)cccc3F)cccn2c1C(=O)Nc1cnn(CCN2CCC(O)C2)c1 (racemic) [Example 131, rac-8-[(2,6-difluorobenzyl)oxy]-N-{1-[2-(3-hydroxypyrrolidin-1-yl)ethyl]-1H-pyrazol-4-yl}-2-methylimidazol[1,2-a] pyridine-3-carboxamide] | 10 µM
5 | Cc1nc2c(OCc3c(F)cccc3F)cccn2c1C(=O)Nc1ccnc2ccc(F)cc12 [Example 54, 8-[(2,6-Difluorobenzyl)oxy]-N-(6-fluoroquinolin-4-yl)-2-methylimidazo[1,2-a]pyridine-3-carboxamide] | 0.03 µM
6 | Cc1nc2c(OCc3c(F)cccc3F)cccn2c1C(=O)Nc1cccc2cccc(Cl)c12 [Example 60, N-(8-Chloronaphthalen-1-yl)-8-[(2,6-difluorobenzyl)oxy]-2-methylimidazo[1,2-a]pyridine-3-carboxamide trifluoroacetate] | 0.3 µM
7 | Cc1nc2c(OCc3c(F)cccc3F)cccn2c1C(=O)Nc1cnn(CCOC(N)=O)c1 [Example 138, 2-{4-[({8-[(2,6-Difluorobenzyl)oxy]-2-methylimidazo[1,2-a]pyridin-3-yl}carbonyl)amino]-1H-pyrazol-1-yl}ethyl carbamate] | 10 µM
8 | COCCn1cc(NC(=O)c2c(C)nc3c(OCc4c(F)cccc4F)cccn23)cn1 [Example 26, 8-[(2,6-difluorobenzyl)oxy]-N-[1-(2-methoxyethyl)-1H-pyrazol-4-yl]-2-methylimidazo[1,2-a]pyridine-3-carboxamide] | 1.0 µM
9 | Cc1nc2c(OCc3c(F)cccc3F)cc(Cl)cn2c1C(=O)Nc1cn[nH]c1C [Example 47, 6-chloro-8-[(2,6-difluorobenzyl)oxy]-2-methyl-N-(5-methyl-1H-pyrazol-4-yl)imidazo[1,2-a]pyridine-3-carboxamide + 6-chloro-8-[(2,6-difluorobenzyl)oxy]-2-methyl-N-(3-methyl-1H-pyrazol-4-yl)imidazo[1,2-a]pyridine-3-carboxamide] | 0.3 µM
10 | Cc1n[nH]c(C)c1NC(=O)c1c(C)nc2c(OCc3c(F)cccc3F)cc(N3CCCC3)cn12 [Example 50, 8-[(2,6-difluorobenzyl)oxy]-N-(3,5-dimethyl-1H-pyrazol-4-yl)-2-methyl-6-(pyrrolidin-1-yl)imidazo[1,2-a]pyridine-3-carboxamide] | 1.0 µM
11 | Cc1nc2c(OCc3c(F)cccc3F)cccn2c1C(=O)Nc1cc[nH]n1 [Example 19] | 3.0 µM
12 | Cc1nc2c(OCc3c(F)cccc3F)cccn2c1C(=O)Nc1ccc(N2CCN(C)CC2)cc1 [Example 96] | 3.0 µM
13 | Cc1cc(N2CCNCC2)ccc1NC(=O)c1c(C)nc2c(OCc3c(F)cccc3F)cc(Cl)cn12 [Example 108, 6-chloro-8-[(2,6-difluorobenzyl)oxy]-2-methyl-N-[2-methyl-4-(piperazin-1-yl)phenyl]imidazo[1,2-a]pyridine-3-carboxamide] | 1.0 µM
14 | Cc1nc2c(OCc3c(F)cccc3F)cccn2c1C(=O)Nc1cnn(CCS(C)(=O)=O)c1 [Example 135, 8-[(2,6-Difluorobenzyl)oxy]-2-methyl-N-{1-[2-(methylsulphonyl)ethyl]-1H-pyrazol-4-yl}imidazo[1,2-a]pyridine-3-carboxamide] | 3.0 µM
15 | Cc1nc2c(OCc3c(F)cccc3F)cc(Cl)cn2c1C(=O)Nc1cnn(CCO)c1 [Example 46, 6-chloro-8-[(2,6-difluorobenzyl)oxy]-N-[1-(2-hydroxyethyl)-1H-pyrazol-4-yl]-2-methylimidazo[1,2-a]pyridine-3-carboxamide] | 0.1 µM
16 | Cc1nn(CC(F)(F)F)cc1NC(=O)c1c(C)nc2c(OCc3c(F)cccc3F)cccn12 [Example 33, 8-[(2,6-difluorobenzyl)oxy]-2-methyl-N-[3-methyl-1-(2,2,2-trifluoroethyl)-1H-pyrazol-4-yl]imidazo[1,2-a]pyridine-3-carboxamide] | 1.0 µM
17 | Cc1nc2c(OCc3c(F)cccc3F)cccn2c1C(=O)Nc1ccc(N2CCNCC2)c(F)c1 [Example 106, 8-[(2,6-difluorobenzyl)oxy]-N-[3-fluoro-4-(piperazin-1-yl)phenyl]-2-methylimidazo[1,2-a]pyridine-3-carboxamide] | 1.0 µM
18 | Cc1ccc2c(NC(=O)c3c(C)nc4c(OCc5c(F)cccc5F)cccn34)cccc2n1 [Example 64] | 0.2 µM
19 | Cc1noc(C)c1NC(=O)c1c(C)nc2c(OCc3c(F)cccc3F)cccn12 [Example 23, 8-[(2,6-difluorobenzyl)oxy]-N-(3,5-dimethyl-1,2-oxazol-4-yl)-2-methylimidazo[1,2-a]pyridine-3-carboxamide] | 0.65 µM
20 | Cc1nc2c(OCc3c(F)cccc3F)cccn2c1C(=O)Nc1nccs1 [Example 145, 8-[(2,6-difluorobenzyl)oxy]-2-methyl-N-(1,3-thiazol-2-yl) imidazo[1,2-a]pyridine-3-carboxamide] | 3.0 µM
21 | Cc1nc2c(OCc3c(F)cccc3F)cccn2c1C(=O)Nc1cnn(Cc2cccc(F)c2)c1 [Example 35, 8-[(2,6-difluorobenzyl)oxy]-N-[1-(3-fluorobenzyl)-1H-pyrazol-4-yl]-2-methylimidazo[1,2-a]pyridine-3-carboxamide] | 3.0 µM
22 | Cc1nc2c(OCc3c(F)cccc3F)cccn2c1C(=O)Nc1ccncc1C(F)(F)F [Example 123, 8-[(2,6-difluorobenzyl)oxy]-2-methyl-N-[3-(trifluoromethyl)pyridin-4-yl)imidazo[1,2-a]pyridine-3-carboxamide trifluoroacetate] | 1.0 µM
23 | Cc1nc2c(OCc3c(F)cccc3F)cccn2c1C(=O)Nc1n[nH]c2ccccc12 [Example 80, 8-[(2,6-Difluorobenzyl)oxy]-N-(1H-indazol-3-yl)-2-methylimidazo[1,2-a]pyridine-3-carboxamide] | 0.3 µM
24 | Cc1cc(OCc2c(F)cccc2F)c2nc(C)c(C(=O)Nc3cccc(NS(C)(=O)=O)c3)n2c1 [Example 153, 8-[(2,6-Difluorobenzyl)oxy]-2,6-dimethyl-N-{3-[(methylsulphonyl)amino]phenyl}imidazo[1,2-a]pyridine-3-carboxamide] | 3.0 µM
25 | Cc1cc(OCc2c(F)cccc2F)c2nc(C)c(C(=O)Nc3c(C)n[nH]c3C)n2c1 [Example 52, 8-[(2,6-difluorobenzyl)oxy]-N-(3,5-dimethyl-1H-pyrazol-4-yl)-2,6-dimethylimidazo[1,2-a]pyridine-3-carboxamide] | 0.65 µM
26 | CCn1nc(C)c(NC(=O)c2c(C)nc3c(OCCC(C(F)(F)F)C(F)(F)F)cc(C)cn23)c1C [Example 147, N-(1-Ethyl-3,5-dimethyl-1H-pyrazol-4-yl)-2,6-dimethyl-8-[4,4,4-trifluoro-3-(trifluoromethyl)butoxy]imidazo[1,2-a]pyridine-3-carboxamide] | 3.0 µM
27 | CCn1nccc1NC(=O)c1c(C)nc2c(OCc3c(F)cccc3F)cccn12 [Example 20] | 1.0 µM
28 | Cc1cc(OCc2c(F)cccc2F)c2nc(C)c(C(=O)Nc3ccnc4ccc(F)cc34)n2c1 [Example 91, 8-[(2,6-Difluorobenzyl)oxy]-N-(6-fluoroquinolin-4-yl)-2,6-dimethylimidazo[1,2-a]pyridine-3-carboxamide] | 0.01 µM
29 | Cc1nc2c(OCc3c(F)cccc3F)cccn2c1C(=O)Nc1cccc2cnccc12 [Example 67] | 0.3 µM
30 | Cc1n[nH]c(C)c1NC(=O)c1c(C)nc2c(OCc3c(F)cccc3F)cc(N3CCOCC3)cn12 [Example 51, 8-[(2,6-difluorobenzyl)oxy]-N-(3,5-dimethyl-1H-pyrazol-4-yl)-2-methyl-6-(morpholin-4-yl)imidazo[1,2-a]pyridine-3-carboxamide] | 1.0 µM
